Measurements reported in paper PMC9935382, “Sorting nexin-dependent therapeutic targeting of oncogenic epidermal growth factor receptor” (Cancer Gene Therapy, 2022).
Entries after “also recorded” stand apart in the source; their conditions may differ.

Key:
MDA-MB-468 cells = format: cell-based; settings: 3 days, MTT
Description: (§1) 2 × 10^3 cells were plated per well in a 96 well plate and left to adhere overnight. The following day, drug treatments were started and continued for 3 days. To measure the viability of the remaining cell population, 10% 3-(4,5-dimethylthiazol-2-yl)-2,5-diphenyltetrazolium (MTT) in media was added and incubated for 2 hours and conversion of MTT to formazan at 540 nm using a biotech Synergy LX plate reader.
A Peptide sequence alignment of modified and stabilized peptides (−) indicates conserved residues, (/) indicates a deleted residue. Modified residues used for staples are (S)-2-(((9H-flouren-9-yl) methoxy) caronylamino)-2-methyl-hept-6-enoic acid and (R)-2-(((9H-flouren-9-yl) methoxy) caronylamino)-2-methyl-dec-9-enoic acid. PTD4 = Protein Transduction Domain. Ac = acetylation of […] and NH2 = amidation of […]. B MDA-MB-468 cells were treated with 10 μM of the indicated peptide for 3 days. Cell viability was measured using an MTT assay. Vehicle control represents 100%. C. A predicted peptide structure of SNX1.3 was generated using SWISSMODEL with negative (blue) and positive (red) residues highlighted.
A–G Cells were plated in a 96-well plate at 2000 cells per well. […] Cell viability was then measured with an MTT assay, viability of treated cells were compared with the vehicle control. […]

CHO cells = test: MTT cell viability, CHO; format: cell-based, Chinese hamster; settings: CHO cells lack EGFR expression, 3 days
Description: as §1
(§2) A–G Cells were plated in a 96-well plate at 2000 cells per well. […] Cell viability was then measured with an MTT assay, viability of treated cells were compared with the vehicle control. H MDA-MB-468 cells were plated and incubated+/− IPTG for 2 days prior to drug treatment to induce expression of an EGFR-targeted shRNA.
Supplementary Figure 1. A. BT20 triple negative breast cancer cells were treated with SNX1.1, 1.2, or 1.3 for 3 days and their viability was measured via MTT analysis. B. CHO cells were treated with PTD4 or SNX1.3 for 3 days and their viability was measured via MTT analysis.

[1] = system: mammary tumors of WAP-TGFα transgenic mice; test: Tumor growth in WAP-TGFα transgenic mice; format: in vivo, mouse
Description: Statistics for the animal model was performed by the University of Arizona Cancer Center Biostatistics and Bioinformatics Shared Resources (BBSR). The cube root of the observed tumor burden was applied to normalize the raw values. […] For all cell culture experiments error bars represent the standard error of the mean across 3 experimental replicates.
The transgenic mouse line WAP-TGFα (The Jackson Laboratory; Tg(WapTgfa)215Bri) were back crossed to C57BL/6 J background (N8). WAP-TGFα heterozygous males were bred with C57BL/6 J females to generate study animals and offspring were genotyped using primers against the WAP-TGFα transgene. WAP-TGFα heterozygous females were housed continuously with C57Bl/6 J males to induce pregnancy, resulting in transgene expression. […] To ensure randomized treatment arms we added mice to alternating treatment arms as they developed tumors, starting with the control cPTD4 arm. When a second mouse from the same litter developed a tumor, that animal was added to the opposite arm from its litter mate. The researchers were not blinded to the treatment arms. […] Once entered, mice were weighed, tumors measured, and injections given intravenously at 10 μg/g body weight 3x/week for 4 weeks. […] Upon sacrifice, all tumors were collected and fixed in 10% formalin; a portion of each tumor was homogenized in tissue lysis buffer to form tissue protein lysates. Tissues were paraffin-embedded and sectioned by the Tissue Acquisition and Cell Molecular Analysis Shared Resource at the University of Arizona Cancer Center. The University of Arizona IACUC committee performs oversite of animal experimental protocols with coordination from a veterinarian in compliance with AAALAC.
When tumors reached >100 mm^3, IV injections began at 3X/week, 10 μg/g body weight and tumors were measured 3X/week with calipers. Animals were injected for 4 weeks or until they reached maximal tumor burden, defined as a total tumor volume >2000 mm^3 or an individual tumor measuring >2 cm in diameter. […] The WAP-TGFα is a spontaneous model in which each tumor arises and progresses in a heterogeneous fashion. […] In this study, mice were sacrificed after 4 weeks of injections or once they reached tumor burden, represented by the Kaplin-Meyer graph (Fig. 2B).
Mice were bred continuously to induce transgene expression and palpated weekly for tumor formation. […] A Changes in tumor size from entry into study until end of study are shown for each individual tumor, (*) indicate tumors that entered the study at size greater than 500 mm^3, all other tumors entered the study at ~100 mm^3. B a Kaplan-Meier survival curve was generated showing when mice were sacrificed by either reaching tumor burden (2000 mm^3) or the end of the study (p = 0.0002). C Upon sacrifice tumors were harvested and fixed in 10% formalin and embedded in paraffin. FFPE blocks were sectioned at […] and stained with hematoxylin and eosin and imaged at 20x. D Protein lysates were generated from tumors upon the sacrifice and probed for the indicated proteins.

T47D cells = test: MTT cell viability, T47D; format: cell-based; settings: 3 days, ER+ breast cancer line
Description: as §1, §2

MDA-MB-231 cells = test: MTT cell viability, MDA-MB-231; format: cell-based; settings: 3 days
Description: as §1, §2

[2] = system: EGFRkin / SNX1 BAR domain; test: Competitive binding assay, SNX BAR / EGFRkin; parameters: species or system human; settings: 2.5 μM peptide; data not shown
PARP = PARP cleavage in tumor lysates (immunoblot); format: in vivo, mouse; settings: tumor lysates at sacrifice; 10 μg/g IV 3X/week; vs cPTD4
Description: Lysates were prepared as described, protein concentrations determined by BCA assay (Pierce) and resolved via standard SDS-PAGE [18]. Gels were transferred to either PVDF (Immobilon P or Immobilon FL) membrane and probed with the indicated antibodies and analyzed by either HRP-linked secondaries (Pierce) or IRDye secondaries (Li-Cor), followed by development in Dura Signal (Pierce) or IR (Licor).
The transgenic mouse line WAP-TGFα (The Jackson Laboratory; Tg(WapTgfa)215Bri) were back crossed to C57BL/6 J background (N8). WAP-TGFα heterozygous males were bred with C57BL/6 J females to generate study animals and offspring were genotyped using primers against the WAP-TGFα transgene. WAP-TGFα heterozygous females were housed continuously with C57Bl/6 J males to induce pregnancy, resulting in transgene expression. […] To ensure randomized treatment arms we added mice to alternating treatment arms as they developed tumors, starting with the control cPTD4 arm. When a second mouse from the same litter developed a tumor, that animal was added to the opposite arm from its litter mate. The researchers were not blinded to the treatment arms. […] Once entered, mice were weighed, tumors measured, and injections given intravenously at 10 μg/g body weight 3x/week for 4 weeks. […]

[3] = biological target: T1, EGFR kinase domain (residues 672–998) (Homo sapiens, UniProt P00533); test: Microscale thermophoresis (MST) binding to EGFRkin; settings: direct binding, MST / BLI
T1 construct: baculovirus insect cell expression system (residues 672–998 with N-terminal His-tag followed by TEV cleavage site); made in house; host or cells: Sf9 insect cells (Bac-to-Bac baculovirus, pFastBacHT)
T1 sequence (P00533 696-1022): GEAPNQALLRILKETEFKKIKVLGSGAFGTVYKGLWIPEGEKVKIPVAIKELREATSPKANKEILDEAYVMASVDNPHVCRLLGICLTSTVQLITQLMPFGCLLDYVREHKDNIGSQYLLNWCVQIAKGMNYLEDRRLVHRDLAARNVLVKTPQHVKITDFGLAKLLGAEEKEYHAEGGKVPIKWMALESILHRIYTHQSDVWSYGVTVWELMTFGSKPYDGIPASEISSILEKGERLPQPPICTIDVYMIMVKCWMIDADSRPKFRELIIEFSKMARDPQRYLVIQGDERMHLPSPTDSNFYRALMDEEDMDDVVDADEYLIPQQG
Description: Briefly pFastBacHT plasmid containing the cDNA of EGFR kinase domain with N-terminal His-tag was transformed into DH10Bac E. coli to generate bacmid DNA. P1 virus was generated by transfecting 2.0 mL of sf9 cells at 1.0 million cells/ml density with the purified bacmid DNA (200–3000 ng/μL). The P1 virus was harvested after 5–7 days following transfection. The P1 virus was diluted 100-fold into an sf9 cell culture at a density of 2.0 million cells/ml and cultured for 3 days. Supernatant containing the P2 virus was collected by centrifugation and diluted 40-fold into 1.0 L of sf9 cells at a density of 2.0 million cells/ml. After 2.5–3 days, cell pellets were harvested by centrifugation at 3500 x g at 4 °C for 20 min, and flash frozen in liquid nitrogen prior to storage at −80 °C.
To purify the EGFR kinase domain, Sf9 cell pellets (~10 g) was thawed on ice and homogenized with 2 passages on an EmulsiFlex-C5 (Avestin) in 50 mL of lysis buffer (50 mM Tris pH 7.5, 600 mM NaCl, 1 mM EDTA, 1 mM TCEP, protease inhibitors, DNAase, and 10% Glycerol). The lysate was centrifugated and supernatant was collected and loaded onto a 1.0 mL HisTrap FF column (GE) at a flow rate of 1.0 ml/min. Following loading, the column was washed with 20 column volumes of wash buffer (50 mM Tris pH 7.5, 600 mM NaCl, 20 mM Imidazole, 1 mM TCEP, and 10% Glycerol) and eluted with a linear gradient of elution buffers containing 20 and 300 mM imidazole. Fractions containing the EGFR kinase domain proteins were combined and concentrated to less than 1.0 mL. The concentrated proteins were loaded onto a Superdex 200 10/300 GL column (GE) equilibrated in buffer (20 mM Tris pH 7.5, 100 mM NaCl) for further purification. The purified proteins were concentrated, flash frozen in liquid nitrogen, and stored at −80 °C.
MST experiments were carried out using a Monolith NT.115 pico instrument (NanoTemper Technologies, Munich Germany). […] Kd values were derived from the concentration-dependent changes in normalized fluorescence (Fnorm). Data were analyzed using NanoTemper MO. […]

SMILES: CC[C@H](C)[C@H](NC(=O)[C@@H](NC(=O)[C@H](Cc1c[nH]cn1)NC(=O)[C@H](CC(N)=O)NC(=O)[C@H](CCCCN)NC(=O)[C@H](C)NC(=O)[C@H](CCCNC(=N)N)NC(=O)[C@H](C)NC(=O)[C@H](CCC(N)=O)NC(=O)[C@H](CCCNC(=N)N)NC(=O)[C@H](C)NC(=O)[C@H](C)NC(=O)[C@H](C)NC(=O)[C@H](CCCNC(=N)N)NC(=O)[C@H](C)NC(=O)[C@H](Cc1ccc(O)cc1)NC(C)=O)C(C)C)C(=O)N[C@@H](CCCCN)C(=O)N[C@@H](Cc1ccc(O)cc1)C(=O)N[C@@H](CC(C)C)C(=O)N[C@@H](CCC(=O)O)C(=O)N[C@H](C(=O)N[C@@H](CC(C)C)C(=O)N[C@@H](CC(C)C)C(=O)N[C@@H](Cc1ccc(O)cc1)C(=O)N[C@@H](CO)C(=O)N[C@@H](CCC(N)=O)C(=O)N[C@@H](CCC(N)=O)C(=O)N[C@@H](CCC(N)=O)C(=O)N[C@@H](CC(C)C)C(=O)N[C@@H](C)C(=O)N[C@@H](CCCCN)C(=O)N[C@@H](Cc1ccc(O)cc1)C(=O)N[C@@H](Cc1c[nH]c2ccccc12)C(=O)N[C@@H](CCC(=O)O)C(=O)N[C@@H](C)C(=O)N[C@@H](Cc1ccccc1)C(=O)N[C@@H](CC(C)C)C(N)=O)[C@@H](C)O [cSNX1.3]
- inhibition of cell survival compared with Sapitinib (MDA-MB-468 cells): more effective than Sapitinib
- impact on cell viability / growth (CHO cells): almost no impact
- tumor response ([1]; 10 μg/g IV 3X/week, up to 4 weeks): significant tumor regression; also recorded: significant reduction in tumor growth; also recorded: several tumors completely regress
- average tumor regression rate ([1]; 10 μg/g IV 3X/week, up to 4 weeks, n = 11 tumors): 4 mm^3/day
- average tumor growth rate ([1]; 10 μg/g body weight IV 3X/week, up to 4 weeks, cPTD4 n = 14 tumors, cSNX1.3 n = 11 tumors): -4 mm^3/day
- mice that reached tumor burden ([1]; mice of total before end of the study, total tumor volume >2000 mm^3 or individual tumor >2 cm): 1/6
- tumors fully regressed ([1]; number of tumors, calipers and confirmed during necropsy, 10 μg/g IV 3X/week): 3
- tumors that demonstrated growth ([1]; number or proportion of tumors at end of study, the 2 growing cSNX1.3 tumors entered at greater than 500 mm^3): 2
- tumors with no change in tumor volume ([1]; tumors of total, first to last measurement, 10 μg/g IV 3X/week): 2/11
- tumors regressed ([1]; tumors of total, 10 μg/g IV 3X/week, up to 4 weeks): 7/11
- sensitivity (cell viability) (T47D cells): sensitive
- sensitivity (cell viability) (MDA-MB-231 cells): sensitive
- inhibition of SNX BAR binding to EGFRkin [2]: blocks SNX BAR binding to EGFRkin
- PARP cleavage in remaining tumors (PARP): increased PARP cleavage; also recorded: increase in cleaved PARP
- binding to the EGFR kinase domain [3]: directly bind the EGFR kinase domain
